Numbering of substitutions follows the chain as printed.
What was measured:
Assay type in all cases: biochemical
soluble guanylyl cyclase [1] = target: T1, soluble guanylyl cyclase (Bos taurus, UniProt P16068+P19687); assay: cGMP ELISA enzyme assay
T1 sequence (P16068 1-619): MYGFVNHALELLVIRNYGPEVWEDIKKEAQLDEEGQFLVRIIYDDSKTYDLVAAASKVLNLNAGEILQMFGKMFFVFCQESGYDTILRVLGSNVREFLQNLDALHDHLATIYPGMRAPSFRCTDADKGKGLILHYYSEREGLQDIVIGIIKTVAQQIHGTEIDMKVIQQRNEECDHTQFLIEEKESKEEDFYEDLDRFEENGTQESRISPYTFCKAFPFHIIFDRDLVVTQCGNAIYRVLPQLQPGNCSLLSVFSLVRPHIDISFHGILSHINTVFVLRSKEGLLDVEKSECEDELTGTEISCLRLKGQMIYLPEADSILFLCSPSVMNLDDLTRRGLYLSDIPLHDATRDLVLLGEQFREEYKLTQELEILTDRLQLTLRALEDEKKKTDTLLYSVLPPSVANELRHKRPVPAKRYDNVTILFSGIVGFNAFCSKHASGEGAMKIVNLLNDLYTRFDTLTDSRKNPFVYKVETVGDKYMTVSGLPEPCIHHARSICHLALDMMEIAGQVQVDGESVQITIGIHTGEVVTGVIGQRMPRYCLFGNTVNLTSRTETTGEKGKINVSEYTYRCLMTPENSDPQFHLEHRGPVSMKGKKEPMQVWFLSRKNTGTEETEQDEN
T1 sequence (P19687 1-691): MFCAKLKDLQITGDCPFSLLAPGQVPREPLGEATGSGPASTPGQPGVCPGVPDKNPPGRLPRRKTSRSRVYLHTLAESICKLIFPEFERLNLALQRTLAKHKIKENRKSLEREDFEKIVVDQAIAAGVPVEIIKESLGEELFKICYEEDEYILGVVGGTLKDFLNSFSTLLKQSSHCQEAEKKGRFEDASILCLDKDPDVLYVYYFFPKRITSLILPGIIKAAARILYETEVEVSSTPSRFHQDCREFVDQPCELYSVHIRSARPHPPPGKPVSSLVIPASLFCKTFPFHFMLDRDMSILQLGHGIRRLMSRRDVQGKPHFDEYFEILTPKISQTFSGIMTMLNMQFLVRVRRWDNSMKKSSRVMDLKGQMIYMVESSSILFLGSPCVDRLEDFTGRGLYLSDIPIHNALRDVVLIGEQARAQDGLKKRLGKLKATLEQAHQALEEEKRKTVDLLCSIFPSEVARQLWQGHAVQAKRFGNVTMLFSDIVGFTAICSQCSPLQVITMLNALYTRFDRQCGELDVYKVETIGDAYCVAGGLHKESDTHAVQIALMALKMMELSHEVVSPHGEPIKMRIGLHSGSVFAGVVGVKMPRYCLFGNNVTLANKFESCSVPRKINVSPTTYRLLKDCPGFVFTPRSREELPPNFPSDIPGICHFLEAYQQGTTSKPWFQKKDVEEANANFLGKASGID

soluble guanylyl cyclase [2] = target: T2, soluble guanylyl cyclase (Homo sapiens, UniProt Q02108+Q02153); assay: cGMP ELISA enzyme assay
T2 sequence (Q02153 1-619): T1 sequence (P16068 1-619) with D126E, S290L, T574S, E615K, E618D, N619D
T2 sequence (Q02108 1-690): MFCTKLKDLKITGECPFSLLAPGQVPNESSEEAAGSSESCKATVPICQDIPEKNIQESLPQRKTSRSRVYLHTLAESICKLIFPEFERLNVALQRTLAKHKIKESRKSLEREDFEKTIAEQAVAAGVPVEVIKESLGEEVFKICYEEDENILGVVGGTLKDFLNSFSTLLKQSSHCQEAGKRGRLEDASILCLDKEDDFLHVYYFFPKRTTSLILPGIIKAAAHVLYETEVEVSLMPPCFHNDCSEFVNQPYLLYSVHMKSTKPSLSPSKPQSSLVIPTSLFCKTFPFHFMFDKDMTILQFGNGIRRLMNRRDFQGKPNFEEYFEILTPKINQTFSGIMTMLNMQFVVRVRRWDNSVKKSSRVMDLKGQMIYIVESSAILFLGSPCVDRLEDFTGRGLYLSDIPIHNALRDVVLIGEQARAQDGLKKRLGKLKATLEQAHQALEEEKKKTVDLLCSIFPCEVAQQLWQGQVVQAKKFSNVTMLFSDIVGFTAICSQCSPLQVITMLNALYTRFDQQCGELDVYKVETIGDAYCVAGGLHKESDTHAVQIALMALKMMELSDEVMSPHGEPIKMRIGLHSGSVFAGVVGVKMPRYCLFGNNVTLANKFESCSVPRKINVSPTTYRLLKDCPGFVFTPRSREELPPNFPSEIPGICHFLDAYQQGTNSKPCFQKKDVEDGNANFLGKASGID

soluble guanylyl cyclase [3] = target: T1, soluble guanylyl cyclase; assay: cGMP production by ELISA at varied GTP

Structure (SMILES)	Ki (soluble guanylyl cyclase [1])	cGMP ELISA enzyme assay (soluble guanylyl cyclase [2])	cGMP production by ELISA at varied GTP; Lineweaver-Burk plot (soluble guanylyl cyclase [3])
Nc1nc(=O)c2ncn([C@H]3C=C[C@@H](COP(=O)(O)OP(=O)(O)OP(=O)(O)O)C3)c2[nH]1 [carbovir triphosphate]	55 µM	able to inhibit the activity of purified soluble guanylyl cyclase (both purified native bovine enzyme and recombinant human enzyme)	
Nc1nc2c(ncn2[C@@H]2O[C@H](COP(=O)(O)OP(=O)(O)OP(=O)(O)O)[C@@H](O)[C@H]2O)c(=O)[nH]1 [guanosine triphosphate]			we measured the amount of inhibition while varying the concentrations of GTP and carbovir triphosphate

Reference: publication PMC3272328 (2011)
